# Several values for one entry are separate records, joined by “and”; a condition that tells them apart may be missing. Identical values can stand only once.
# Experiments:
# [1] = system: NCI-H358 cells (K-Ras G12C); test: Potency assay: pERK in NCI-H358 cells; assay type: cell-based, human; settings: Homo sapiens, NCI-H358; H358 KRAS G12C; read-out: pERK EC50
# Summary of the method: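 4 h cpd, 37 °C; 10-pt 3-fold series, 10 mM DMSO top stock, duplicates. Readout pERK: AlphaLISA SureFire Ultra or In-Cell Western (IR-800CW secondary, DRAQ5 DNA stain). IC50, 4-PL fit vs log conc.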
# NCI-H358 (K-Ras G12C) = test: CellTiter-Glo cell viability assay, NCI-H358; assay type: cell-based, human; settings: Homo sapiens, NCI-H358, 120 h, NCI-H358, 5-day treatment; class symbols; read-out: Additional H358 Cell Viability assay data (K-Ras G12C, IC50)
# Summary of the method: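 Viability measured by CellTiter-Glo luminescence on day 5 following direct addition of compound to plated cells. Values expressed as percent of mean DMSO signal; curves fitted with a four-parameter logistic model.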
# K-Ras G12C = K-Ras G12C (Homo sapiens (Human), UniProt P01116+P62937, G12C); test: Ras-Raf (BRAF RBD) disruption / FRET / MOA assay, KRAS G12C; assay type: biochemical; settings: KRAS G12C; Ras-Raf disruption/FRET/MOA assay; read-out: IC50* KRAS G12C FRET data
# Chain of K-Ras G12C (P01116-2 other isoform, or with tags, fused parts or gaps G12C): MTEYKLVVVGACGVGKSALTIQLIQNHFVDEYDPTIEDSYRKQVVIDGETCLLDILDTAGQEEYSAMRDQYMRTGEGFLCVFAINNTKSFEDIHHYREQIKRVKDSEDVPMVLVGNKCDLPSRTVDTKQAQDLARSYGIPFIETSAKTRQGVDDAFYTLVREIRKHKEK
# Chain of K-Ras G12C (P62937 whole entry): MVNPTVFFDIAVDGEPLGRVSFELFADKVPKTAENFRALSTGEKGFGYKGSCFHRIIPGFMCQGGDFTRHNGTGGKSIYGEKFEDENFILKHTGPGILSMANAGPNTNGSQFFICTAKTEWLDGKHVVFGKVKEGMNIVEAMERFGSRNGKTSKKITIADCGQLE
# Summary of the method: (§1)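 Ternary complex formation (Ras–compound–cyclophilin A) displacing BRAF RBD, monitored by TR-FRET. Three hours at 25° C with compound (top 30 μM final), then 1.5 h with the labelled antibodies. Lower ratio than DMSO indicates disruption; IC50 reported.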
# K-Ras G13C = K-Ras G13C (Homo sapiens (Human), UniProt P01116+P62937, G13C); test: Ras-Raf (BRAF RBD) disruption / FRET / MOA assay, KRAS G13C; assay type: biochemical; settings: KRAS G13C; Ras-Raf disruption/FRET/MOA assay; read-out: IC50* KRAS G13C FRET data
# Chain of K-Ras G13C (P01116-2 other isoform, or with tags, fused parts or gaps G13C): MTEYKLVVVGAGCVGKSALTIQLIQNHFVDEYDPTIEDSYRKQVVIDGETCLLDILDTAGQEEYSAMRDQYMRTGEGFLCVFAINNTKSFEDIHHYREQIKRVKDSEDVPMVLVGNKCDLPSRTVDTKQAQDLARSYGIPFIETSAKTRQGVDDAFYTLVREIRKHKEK
# Chain of K-Ras G13C (P62937 whole entry): as the sequence (P62937 whole entry) above
# Summary of the method: as §1
# KRAS G12S = KRAS G12S (Homo sapiens (Human), UniProt P01116+P62937, G12S); test: Ras-Raf (BRAF RBD) disruption / FRET / MOA assay, KRAS G12S; assay type: biochemical; settings: Ras-Raf disruption/FRET/MOA assay; class symbols; read-out: KRAS G12S FRET data IC50
# Chain of KRAS G12S (P01116-2 other isoform, or with tags, fused parts or gaps G12S): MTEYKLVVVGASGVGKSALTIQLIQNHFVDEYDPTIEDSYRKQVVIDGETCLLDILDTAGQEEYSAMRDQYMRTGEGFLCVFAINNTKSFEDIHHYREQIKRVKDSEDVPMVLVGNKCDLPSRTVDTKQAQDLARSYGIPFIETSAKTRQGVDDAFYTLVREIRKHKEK
# Chain of KRAS G12S (P62937 whole entry): as the sequence (P62937 whole entry) above
# Summary of the method: as §1
# KRAS G12D = KRAS G12D (Homo sapiens (Human), UniProt P01116+P62937, G12D); test: Ras-Raf (BRAF RBD) disruption / FRET / MOA assay, KRAS G12D; assay type: biochemical; settings: Ras-Raf disruption/FRET/MOA assay; class symbols; read-out: KRAS G12D FRET data IC50
# Chain of KRAS G12D (P01116-2 other isoform, or with tags, fused parts or gaps G12D): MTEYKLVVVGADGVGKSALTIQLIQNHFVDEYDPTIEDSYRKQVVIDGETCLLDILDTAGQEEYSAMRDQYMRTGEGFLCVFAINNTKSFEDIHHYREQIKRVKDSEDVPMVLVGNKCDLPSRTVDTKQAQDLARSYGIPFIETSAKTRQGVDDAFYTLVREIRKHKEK
# Chain of KRAS G12D (P62937 whole entry): as the sequence (P62937 whole entry) above
# Summary of the method: as §1
# KRAS G12V = KRAS G12V (Homo sapiens (Human), UniProt P01116+P62937, G12V); test: Ras-Raf (BRAF RBD) disruption / FRET / MOA assay, KRAS G12V; assay type: biochemical; settings: read-out: IC50* KRAS G12V FRET data
# Chain of KRAS G12V (P01116-2 other isoform, or with tags, fused parts or gaps G12V): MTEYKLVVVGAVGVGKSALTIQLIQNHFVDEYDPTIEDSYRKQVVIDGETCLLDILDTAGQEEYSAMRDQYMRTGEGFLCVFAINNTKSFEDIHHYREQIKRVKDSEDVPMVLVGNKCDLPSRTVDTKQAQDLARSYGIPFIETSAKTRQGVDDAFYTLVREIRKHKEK
# Chain of KRAS G12V (P62937 whole entry): as the sequence (P62937 whole entry) above
# Summary of the method: as §1
# KRAS WT = KRAS WT (Homo sapiens (Human), UniProt P01116+P62937); test: Ras-Raf (BRAF RBD) disruption / FRET / MOA assay, KRAS WT; assay type: biochemical; settings: read-out: IC50* KRAS WT FRET data
# Chain of KRAS WT (P01116-2 other isoform, or with tags, fused parts or gaps): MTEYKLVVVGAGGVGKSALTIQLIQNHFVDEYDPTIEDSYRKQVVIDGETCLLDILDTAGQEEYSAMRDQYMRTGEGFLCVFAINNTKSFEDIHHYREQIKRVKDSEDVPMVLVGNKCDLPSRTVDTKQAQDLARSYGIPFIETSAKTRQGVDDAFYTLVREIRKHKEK
# Chain of KRAS WT (P62937 whole entry): as the sequence (P62937 whole entry) above
# Summary of the method: as §1
# KRAS G13D = KRAS G13D (Homo sapiens (Human), UniProt P01116+P62937, G13D); test: Ras-Raf (BRAF RBD) disruption / FRET / MOA assay, KRAS G13D; assay type: biochemical; settings: read-out: IC50* KRAS G13D FRET data
# Chain of KRAS G13D (P01116-2 other isoform, or with tags, fused parts or gaps G13D): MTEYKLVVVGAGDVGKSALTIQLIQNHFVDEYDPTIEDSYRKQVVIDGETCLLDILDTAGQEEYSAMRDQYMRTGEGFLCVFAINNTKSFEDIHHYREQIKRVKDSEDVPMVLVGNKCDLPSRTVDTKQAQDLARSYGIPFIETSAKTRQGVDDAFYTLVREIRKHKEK
# Chain of KRAS G13D (P62937 whole entry): as the sequence (P62937 whole entry) above
# Summary of the method: as §1
# NRAS G12C = NRAS G12C (Homo sapiens (Human), UniProt P01111+P62937, G12C); test: Ras-Raf (BRAF RBD) disruption / FRET / MOA assay, NRAS G12C; assay type: biochemical; settings: read-out: IC50* NRAS G12C FRET data
# Chain of NRAS G12C (P01111 whole entry G12C): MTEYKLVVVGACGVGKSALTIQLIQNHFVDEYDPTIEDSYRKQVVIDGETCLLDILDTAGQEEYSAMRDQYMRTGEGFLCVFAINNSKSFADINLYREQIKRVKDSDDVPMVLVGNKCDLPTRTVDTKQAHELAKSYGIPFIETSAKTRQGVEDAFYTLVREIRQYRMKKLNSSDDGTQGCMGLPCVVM
# Chain of NRAS G12C (P62937 whole entry): as the sequence (P62937 whole entry) above
# Summary of the method: as §1
SMILES,EC50 [1] [nM],IC50 (NCI-H358 (K-Ras G12C)) [nM],IC50 (K-Ras G12C),IC50 (K-Ras G13C),IC50 (KRAS G12S),IC50 (KRAS G12D),IC50 (KRAS G12V),IC50 (KRAS WT),IC50 (KRAS G13D),IC50 (NRAS G12C)
"CCn1c(-c2cccnc2[C@H](C)OC)c2c3cc(ccc31)-c1csc(n1)C[C@H](NC(=O)[C@H](C(C)C)N1CC[C@@]3(CCN(C(=O)C#CC(C)(C)N(C)C)C3)C1=O)C(=O)N1CCC[C@H](N1)C(=O)OCC(C)(C)C2 (single isomer, unassigned) [Example A425]",< 5000,< 10,< 10 nM,100 to 1000 nM,1000 to 10000 nM,> 10000 nM,> 10000 nM,> 10000 nM,> 10000 nM,10 to 100 nM
"C=CC(=O)N1C[C@@H]2[C@H](C1)[C@@H]2C(=O)N(C)[C@H](C(=O)N[C@H]1Cc2cc(O)cc(c2)-c2ccc3c(c2)c(c(-c2cccnc2[C@H](C)OC)n3CC)CC(C)(C)COC(=O)[C@@H]2CCCN(N2)C1=O)C(C)C (atropisomer, axis not shown) [Example A319]",< 5000,10 to 100,10 to 100 nM,10 to 100 nM,10 to 100 nM,10 to 100 nM,10 to 100 nM,10 to 100 nM,10 to 100 nM,10 to 100 nM
"C=CC(=O)N1CC[C@H](C(=O)N(C)[C@H](C(=O)N[C@H]2Cc3cc(C(F)F)cc(n3)-c3ccc4c(c3)c(c(-c3cccnc3[C@H](C)OC)n4CC)CC(C)(C)COC(=O)[C@@H]3CCCN(N3)C2=O)C(C)C)C1 (atropisomer, axis not shown) [Example A441]",< 5000,10 to 100,1000 to 10000 nM,1000 to 10000 nM,> 10000 nM,> 10000 nM,> 10000 nM,> 10000 nM,> 10000 nM,1000 to 10000 nM
CCn1c(-c2cnccc2COC)c2c3cc(ccc31)-c1cc(O)cc(c1)C[C@H](NC(=O)[C@H](C(C)C)N(C)C(=O)[C@H]1CCN(C(=O)C(C)(C)N(C)C)C1)C(=O)N1CCC[C@H](N1)C(=O)OCC(C)(C)C2 [Example A153],< 5000,100 to 1000,10 to 100 nM,100 to 1000 nM,100 to 1000 nM,100 to 1000 nM,100 to 1000 nM,100 to 1000 nM,100 to 1000 nM,10 to 100 nM
"C=CC(=O)N1CC2(C1)OCN([C@H](C(=O)N[C@H]1Cc3cccc(c3)-c3ccc4c(c3)c(c(-c3cccnc3[C@H](C)OC)n4CC)CC(C)(C)COC(=O)[C@@H]3CCCN(N3)C1=O)C(C)C)C2=O (atropisomer, axis not shown) [Example A452]",< 5000,< 10,10 to 100 nM,10 to 100 nM,1000 to 10000 nM,> 10000 nM,1000 to 10000 nM,100 to 1000 nM,1000 to 10000 nM,10 to 100 nM
CCn1c(-c2ccccc2CN(C)C)c2c3cc(ccc31)-c1cc(O)cc(c1)C[C@H](NC(=O)[C@H](C(C)C)N(C)Cc1ccc(NC(=O)/C=C/CN(C)C)cn1)C(=O)N1CCC[C@H](N1)C(=O)OCC(C)(C)C2 [Example A213],< 5000,> 1000,100 to 1000 nM and > 10000 nM,100 to 1000 nM and 1000 to 10000 nM,1000 to 10000 nM and > 10000 nM,1000 to 10000 nM and > 10000 nM,1000 to 10000 nM and > 10000 nM,1000 to 10000 nM and > 10000 nM,1000 to 10000 nM and > 10000 nM,1000 to 10000 nM and > 10000 nM
C=CC(=O)N1CCC2(C1)OCN([C@H](C(=O)N[C@H]1Cc3cccc(c3)-c3ccc4c(c3)c(c(-c3cccnc3[C@H](C)OC)n4CC)CC(C)(C)COC(=O)[C@@H]3CCCN(N3)C1=O)C(C)C)C2=O (stereo partly drawn) [Example A459],< 5000,10 to 100,10 to 100 nM,100 to 1000 nM,1000 to 10000 nM,1000 to 10000 nM,1000 to 10000 nM,1000 to 10000 nM,1000 to 10000 nM,10 to 100 nM
CCn1c(-c2cccnc2COC)c2c3cc(ccc31)-c1cc(O)cc(c1)C[C@H](NC(=O)[C@@H](C(C)C)N(C)C(=O)[C@H]1C[C@@H](C)N(C(=O)C#CCN(C)C)C1)C(=O)N1CCC[C@H](N1)C(=O)OCC(C)(C)C2 [Example A165],< 5000,10 to 100,10 to 100 nM,100 to 1000 nM,> 10000 nM,> 10000 nM,> 10000 nM,> 10000 nM,> 10000 nM,10 to 100 nM
C=CC(=O)N(C)[C@H](C(=O)N[C@H]1Cc2cc(O)cc(c2)-c2ccc3c(c2)c(c(-c2cccnc2COC)n3CC)CC(C)(C)COC(=O)[C@@H]2CCCN(N2)C1=O)C(C)C [Example A110],< 5000,100 to 1000,100 to 1000 nM,100 to 1000 nM,1000 to 10000 nM,1000 to 10000 nM,1000 to 10000 nM,100 to 1000 nM,1000 to 10000 nM,1000 to 10000 nM
"C=CC(=O)N1CC[C@H](C(=O)N(C)[C@H](C(=O)NN2Cc3cc(O)cc(c3)-c3ccc4c(c3)c(c(-c3cccnc3[C@H](C)OC)n4CC)CC(C)(C)COC(=O)[C@@H]3CCCN(N3)C2=O)C(C)C)C1 (atropisomer, axis not shown) [Example A233]",< 5000,10 to 100,10 to 100 nM,10 to 100 nM,10 to 100 nM,100 to 1000 nM,10 to 100 nM,10 to 100 nM,100 to 1000 nM,10 to 100 nM
"C=CC(=O)NCCN(C)C(=O)N(C)[C@H](C(=O)N[C@H]1Cc2nc(cs2)-c2ccc3c(c2)c(c(-c2cccnc2[C@H](C)OC)n3CC)CC(C)(C)COC(=O)[C@@H]2CCCN(N2)C1=O)C(C)C (atropisomer, axis not shown) [Example A438]",< 5000,10 to 100,10 to 100 nM,10 to 100 nM,100 to 1000 nM,1000 to 10000 nM,100 to 1000 nM,100 to 1000 nM,100 to 1000 nM,10 to 100 nM
"CCn1c(-c2cccnc2[C@H](C)OC)c2c3cc(ccc31)-c1cccc(c1)C[C@H](NC(=O)[C@H](C(C)C)N(C)C(=O)[C@H]1CCN(C(=O)C#CC3(N(C)C)CN(C)C3)C1)C(=O)N1CCC[C@H](N1)C(=O)OCC(C)(C)C2 (atropisomer, axis not shown) [Example A499]",< 5000,10 to 100,10 to 100 nM,1000 to 10000 nM,1000 to 10000 nM,1000 to 10000 nM,1000 to 10000 nM,1000 to 10000 nM,1000 to 10000 nM,10 to 100 nM
